Data reported in patent US20170240522A1, “BENZOTHIOPHENE, BENZYLOXYBENZYLIDENE AND INDOLINE DERIVATIVES USEFUL FOR THE TREATMENT OF TUBERCULOSIS” (priority 2014, published 2017).

Tests used:
Mtb transcriptome = assay: RNA-seq and qRT-PCR of compound-treated Mtb; assay type: cell-based, Mycobacterium tuberculosis; conditions: RNA-seq, 5 μM
Description: For the transcriptomic studies, bacteria were grown under the same conditions as for protein secretion assays. Drug exposure time was 8 hours with 5 μM of compound for RNA-seq experiments and confirmatory qRT-PCR. RNA was extracted with Trizol (Invitrogen) and treated with DNase I (Roche) prior to library preparation or generation of the cDNA template. cDNA was synthesized using the RevertAid First Strand cDNA Synthesis Kit (Fermentas) using random hexamer primer. cDNA corresponding to 10 ng of input RNA was used in each RT-PCR reaction supplemented with specific primer pairs (200 nM each) listed in Table S4 and SYBR-Green master mix (Applied Biosystems). Quantitative RT-PCR reactions were performed with the 7900HT Fast Real-Time PCR System (Applied Biosystems) with the following parameters: 50° C. for 2 min, 95° C. for 10 min, followed by 40 cycles of 95° C. for 15 s and 60° C. for 60 s. Melt curve analysis was used to confirm specific amplification for each primer pair. Unpaired Student's T-tests were used for statistical analyses.
For the RNA-seq library preparation 100 ng of total RNA were used in the TruSeq Stranded mRNA LT kit, according to the instructions provided by the manufacturer (Illumina). A small aliquot was analyzed on Qubit and Fragment Analyzer prior to sequencing on Illumina HiSeq using the TruSeq SR Cluster Generation Kit v3 and TruSeq SBS Kit v3. Data were processed with the Illumina Pipeline Software v1.82. RNA-seq data were deposited in the Gene Expression Omnibus (GEO) server at the National Center for Biotechnology Information (NCBI).
• All analyses in this study were carried out using the M. tuberculosis H37Rv annotation from the TubercuList database (http://tuberculist.epfl.ch/) (Lew et al., 2011). There are 4019 protein coding sequences (CDS) currently annotated in the genome, 73 genes encoding for stable RNAs, small RNAs and tRNAs. In order to quantify protein occupancy and transcription across the entire genome, 3080 intergenic regions (regions flanked by two non-overlapping CDS) were included, resulting in a total of 7172 features. • The single-ended sequence reads generated from RNA-seq experiments were aligned to the M. tuberculosis H37Rv genome (NCBI accession NC_000962.2) using Bowtie2 with default parameters (Langmead and Salzberg, 2012). Read counts for all annotated features were obtained with the htseq-count program (http://www.huber.embl.de/users/anders/HTSeq/doc/count.html). Regions where genes overlapped were excluded from counting. Reads spanning more than one feature were counted for each feature. Since the RNA library was strand-specific, the orientation of sequence reads had to correspond to the orientation of annotated features to be counted. Analysis of differential gene expression was carried out using the DESeq package (Anders and Huber, 2010).

ATP-levels of Mtb = assay: Quantification of intracellular ATP levels; assay type: cell-based, Mycobacterium tuberculosis; conditions: 10 μM, 24 hours
Description: (§1) Bacteria were grown for 24 hours in the presence of test compounds. The BacTiter-Glo microbial cell viability reagent (Promega) was used for the quantification of ATP according to the recommendations of the manufacturer. For EtBr uptake assays, bacteria were washed with PBS containing 0.05% Tween 80, OD600 was adjusted to 0.4 and 100 μl were pipetted into black 96 well plates. EtBr was added (4 μM final concentration) and fluorescence was read every 2 min. at 545/600 nm. Unpaired Student's T-tests were used for statistical analyses.

[1] = test system: mycobacterial outer membrane permeability; assay: Ethidium bromide (EtBr) uptake assay; assay type: cell-based, Mycobacterium tuberculosis; conditions: 10 μM
Description: as §1
To investigate whether BBH7 alters mycobacterial outer membrane permeability, which might explain the transcriptomic pattern associated with metal-ion toxicity, the Applicant performed ethidium bromide (EtBr) uptake assays after treatment with the compounds of interest. These assays identify altered outer membrane permeability by an increase of fluorescence after binding of EtBr to bacterial nucleic acids. […] This was not observed with BTP15.

[2] = test system: Mtb-GFP inside activated THP-1 cells; assay type: cell-based, Mycobacterium tuberculosis; conditions: activated THP-1, 10 μM
Ag85 complex proteins = assay type: cell-based, Mycobacterium tuberculosis; conditions: 5 μM
MRC-5 lung fibroblasts = assay: Fibroblast survival assay (FSA); assay type: cell-based; conditions: Homo sapiens, MRC5; read-out: IC50 of protection of fibroblasts
GroEL = conditions: BBH7 and BTP15 treatment
Description: In brief, 30 ml of bacteria grown to mid-logarithmic phase (OD600 of 0.6 to 0.7) in Sauton's medium supplemented with 0.05% Tween 80 were centrifuged and resuspended in Sauton's medium without Tween. Compounds were added at concentrations as indicated and cells were grown further at 37° C. with shaking for 4 days. Cultures were harvested by centrifugation to obtain culture filtrates and cell pellets. Culture filtrates were concentrated 100-fold in 5-kDa cutoff Vivaspin columns (Sartorius). Cell lysates were prepared by bead beating bacterial pellets in lysis buffer with 100-μm glass beads.
For immunoblot analysis, 5 μg of protein were resolved by SDS-gel electrophoresis and transferred to nitrocellulose membranes. Membranes were blocked with TBS-buffer (3% milk powder) and incubated overnight with the desired primary antibody diluted in TNT-buffer supplemented with 1% BSA fraction V. Membranes were washed with TNT, incubated with the appropriate secondary antibody in TNT-BSA, washed again with TNT, and developed. GroEL2 was used as a lysis control for culture filtrates and as a loading control for cell lysates.

[3] = test system: Mtb expressing GFP in infected fibroblasts; assay type: cell-based, Mycobacterium tuberculosis; conditions: compound concentration 5 μM (FIG. 2D)
[4] = test system: Mtb-infected THP-1 macrophages; assay type: cell-based, human
THP-1 macrophages = assay: Survival of Mtb-infected activated THP-1 macrophages; assay type: cell-based, human; conditions: activated THP-1, higher MOI, 10 μM
ESX-1 = ESX-1 inhibitory activity of inhibitors of mycobacterium virulence (Table VII); assay type: cell-based, Mycobacterium tuberculosis

CSC(=S)N/N=C(\C)c1ccc(OCc2ccc(F)cc2F)cc1 [BBH7, N′-{1-[4-(2,4-Difluoro-benzyloxy)-phenyl]ethylidene}-hydrazinecarbodithioic acid methyl ester]
upregulated genes (number) (Mtb transcriptome): 121 genes | upregulation of the metallothionein mymT (Mtb transcriptome): 20 fold | differentially regulated genes (number) (Mtb transcriptome; 8 hours): 144 genes | mycobacterial ATP levels (ATP-levels of Mtb): not found to be reduced | EtBr accumulation and fluorescence [1]: increases EtBr accumulation and fluorescence | intracellular bacterial load [2]: greatly reduced the intracellular bacterial load | Ag85 secretion (Ag85 complex proteins): fully blocked | IC50 (MRC-5 lung fibroblasts): 2.4 µM | GroEL in the culture filtrate (cell lysis) (GroEL): not observed | GFP fluorescence of Mtb in infected fibroblasts [3]: no fluorescence was detected | rate of bacteria in acidic compartments (Lysotracker Red co-localization) [4]: significantly higher rate | protection of THP-1 cells from Mtb-induced cell death (THP-1 macrophages): protected THP-1 cells from Mtb-induced cell death | Activity (ESX-1): 97%
